Reference: patent publication US9758485B2, “Compounds for controlling arthropods” (priority 2013, dated 2017)

Test system: Lucilia cuprina
Assay: Lucilia cuprina test
Type: in vivo
Conditions: application rate 100 ppm; L1 larvae in minced horsemeat; kill after 2 days
Protocol: (§1) Solvent: dimethyl sulphoxide
(§2) To produce an appropriate active ingredient formulation, 10 mg of active ingredient are mixed with 0.5 ml of dimethyl sulphoxide, and the concentrate is diluted with water to the desired concentration.
About 20 L1 larvae of the Australian sheep blowfly (Lucilia cuprina) are transferred into a test vessel containing minced horsemeat and the active ingredient preparation of the desired concentration.
After 2 days, the kill in % is determined. 100% means that all the larvae have been killed; 0% means that none of the larvae have been killed.

Row | Compound | efficacy
1 | O=C(NCC(F)(F)F)c1cc(-c2cnn(-c3c(Cl)cc(C(F)(C(F)(F)F)C(F)(F)F)cc3C(F)(F)F)c2)ccc1Cl [I-T3-58] | 100%
2 | N#CC1(NC(=O)c2cc(-c3cnn(-c4ncc(C(F)(F)F)cc4Cl)c3)ccc2Cl)CC1 [I-T3-59] | 100%
3 | O=C(NC1CC1)c1cc(-c2cnn(-c3ncc(C(F)(F)F)cc3Cl)c2)ccc1Cl [I-T3-60] | 90%
4 | N#CC1(NC(=O)c2cc(-c3cnn(-c4c(F)cc(C(F)(C(F)(F)F)C(F)(F)F)cc4F)c3)ccc2Cl)CC1 [I-T3-62] | 100%
5 | Cc1cc(C(F)(C(F)(F)F)C(F)(F)F)cc(C)c1-n1cc(-c2ccc(Cl)c(C(=O)NC3(C#N)CC3)c2F)cn1 [I-T3-65] | 100%
6 | CCc1cc(C(F)(C(F)(F)F)C(F)(F)F)cc(C)c1-n1cc(-c2ccc(Cl)c(C(=O)NC3(C#N)CC3)c2F)cn1 [I-T3-66] | 100%
7 | CCc1cc(C(F)(C(F)(F)F)C(F)(F)F)cc(C)c1-n1cc(-c2ccc(Cl)c(C(=O)NC3CC3)c2F)cn1 [I-T3-68] | 100%
8 | CCc1cc(C(F)(C(F)(F)F)C(F)(F)F)cc(C)c1-n1cc(-c2cccc(C(=O)NC3(C#N)CC3)c2F)cn1 [I-T3-69] | 95%

Test system: Ctenocephalides felis
Assay: Ctenocephalides felis - oral test
Type: in vivo
Conditions: application rate 100 ppm in citrated cattle blood; adult fleas; kill after 2 days
Protocol: Ctenocephalides felis—Oral Test
as §1
For the purpose of producing an appropriate active ingredient formulation, 10 mg of active ingredient are mixed with 0.5 ml of dimethyl sulphoxide. Dilution with citrated cattle blood gives the desired concentration.
About 20 unfed adult cat fleas (Ctenocephalides felis) are placed into a chamber which is closed at the top and bottom with gauze. A metal cylinder whose bottom end is closed with parafilm is placed onto the chamber. The cylinder contains the blood/active ingredient preparation, which can be imbibed by the fleas through the parafilm membrane.
After 2 days, the kill in % is determined. 100% means that all of the fleas have been killed; 0% means that none of the fleas have been killed.

Row | Compound | efficacy
9 | O=C(NCC(F)(F)F)c1cc(-c2cnn(-c3c(Cl)cc(C(F)(C(F)(F)F)C(F)(F)F)cc3C(F)(F)F)c2)ccc1Cl [I-T3-58] | 100%
10 | N#CC1(NC(=O)c2cc(-c3cnn(-c4ncc(C(F)(F)F)cc4Cl)c3)ccc2Cl)CC1 [I-T3-59] | 100%
11 | O=C(NC1CC1)c1cc(-c2cnn(-c3ncc(C(F)(F)F)cc3Cl)c2)ccc1Cl [I-T3-60] | 90%
12 | N#CC1(NC(=O)c2cc(-c3cnn(-c4c(F)cc(C(F)(C(F)(F)F)C(F)(F)F)cc4F)c3)ccc2Cl)CC1 [I-T3-62] | 100%
13 | Cc1cc(C(F)(C(F)(F)F)C(F)(F)F)cc(C)c1-n1cc(-c2ccc(Cl)c(C(=O)NC3(C#N)CC3)c2F)cn1 [I-T3-65] | 100%
14 | CCc1cc(C(F)(C(F)(F)F)C(F)(F)F)cc(C)c1-n1cc(-c2ccc(Cl)c(C(=O)NC3(C#N)CC3)c2F)cn1 [I-T3-66] | 100%
15 | CCc1cc(C(F)(C(F)(F)F)C(F)(F)F)cc(C)c1-n1cc(-c2ccc(Cl)c(C(=O)NC3CC3)c2F)cn1 [I-T3-68] | 100%
16 | CCc1cc(C(F)(C(F)(F)F)C(F)(F)F)cc(C)c1-n1cc(-c2cccc(C(=O)NC3(C#N)CC3)c2F)cn1 [I-T3-69] | 100%

Test system: not listed separately
Assay: logP determination by HPLC on a reversed-phase column (C18), EEC Directive 79/831 Annex V.A8
Type: physicochemical
Conditions: HPLC-MS method a), Table I-T3

Row | Compound | logP^a)
17 | O=C(NCC(F)(F)F)c1cc(-c2cnn(-c3c(Cl)cc(C(F)(C(F)(F)F)C(F)(F)F)cc3C(F)(F)F)c2)ccc1Cl [I-T3-58] | 4.7
18 | N#CC1(NC(=O)c2cc(-c3cnn(-c4ncc(C(F)(F)F)cc4Cl)c3)ccc2Cl)CC1 [I-T3-59] | 3.1
19 | O=C(NC1CC1)c1cc(-c2cnn(-c3ncc(C(F)(F)F)cc3Cl)c2)ccc1Cl [I-T3-60] | 3.2
20 | N#CC1(NC(=O)c2cc(-c3cnn(-c4c(F)cc(C(F)(C(F)(F)F)C(F)(F)F)cc4F)c3)ccc2Cl)CC1 [I-T3-62] | 3.9
21 | Cc1cc(C(F)(C(F)(F)F)C(F)(F)F)cc(C)c1-n1cc(-c2ccc(Cl)c(C(=O)NC3(C#N)CC3)c2F)cn1 [I-T3-65] | 4.3
22 | CCc1cc(C(F)(C(F)(F)F)C(F)(F)F)cc(C)c1-n1cc(-c2ccc(Cl)c(C(=O)NC3(C#N)CC3)c2F)cn1 [I-T3-66] | 4.6
23 | CCc1cc(C(F)(C(F)(F)F)C(F)(F)F)cc(C)c1-n1cc(-c2ccc(Cl)c(C(=O)NC3CC3)c2F)cn1 [I-T3-68] | 4.8
24 | CCc1cc(C(F)(C(F)(F)F)C(F)(F)F)cc(C)c1-n1cc(-c2cccc(C(=O)NC3(C#N)CC3)c2F)cn1 [I-T3-69] | 4.5

Test system: Musca domestica
Assay: Musca domestica test
Type: in vivo
Conditions: application rate 100 ppm; adult houseflies; kill after 2 days
Protocol: as §1, §2
Vessels containing a sponge treated with sugar solution and the active ingredient formulation of the desired concentration are populated with 10 adult houseflies (Musca domestica).
After 2 days, the kill in % is determined. 100% means that all of the flies have been killed; 0% means that none of the flies have been killed.

Row | Compound | efficacy
25 | O=C(NCC(F)(F)F)c1cc(-c2cnn(-c3c(Cl)cc(C(F)(C(F)(F)F)C(F)(F)F)cc3C(F)(F)F)c2)ccc1Cl [I-T3-58] | 100%
26 | N#CC1(NC(=O)c2cc(-c3cnn(-c4c(F)cc(C(F)(C(F)(F)F)C(F)(F)F)cc4F)c3)ccc2Cl)CC1 [I-T3-62] | 100%
27 | Cc1cc(C(F)(C(F)(F)F)C(F)(F)F)cc(C)c1-n1cc(-c2ccc(Cl)c(C(=O)NC3(C#N)CC3)c2F)cn1 [I-T3-65] | 100%
28 | CCc1cc(C(F)(C(F)(F)F)C(F)(F)F)cc(C)c1-n1cc(-c2ccc(Cl)c(C(=O)NC3(C#N)CC3)c2F)cn1 [I-T3-66] | 80%
29 | CCc1cc(C(F)(C(F)(F)F)C(F)(F)F)cc(C)c1-n1cc(-c2ccc(Cl)c(C(=O)NC3CC3)c2F)cn1 [I-T3-68] | 80%

Test system: Boophilus microplus
Assay: Boophilus microplus - injection test
Type: in vivo
Conditions: application rate 20 μg/animal; injected into engorged adult female ticks; laying of fertile eggs, after 7 days
Protocol: Boophilus microplus—Injection Test
as §1
To produce an appropriate active ingredient formulation, 10 mg of active ingredient are mixed with 0.5 ml of solvent and the concentrate is diluted with solvent to the desired concentration.
1 μl of the active ingredient solution is injected into the abdomen of 5 engorged adult female cattle ticks (Boophilus microplus). The animals are transferred into dishes and kept in a climate-controlled room.
Efficacy is assessed after 7 days by laying of fertile eggs. Eggs which are not visibly fertile are stored in a climate-controlled cabinet until the larvae hatch after about 42 days. An efficacy of 100% means that none of the ticks has laid any fertile eggs; 0% means that all the eggs are fertile.

Row | Compound | efficacy
30 | O=C(NCC(F)(F)F)c1cc(-c2cnn(-c3c(Cl)cc(C(F)(C(F)(F)F)C(F)(F)F)cc3C(F)(F)F)c2)ccc1Cl [I-T3-58] | 100%
31 | N#CC1(NC(=O)c2cc(-c3cnn(-c4ncc(C(F)(F)F)cc4Cl)c3)ccc2Cl)CC1 [I-T3-59] | 100%
32 | O=C(NC1CC1)c1cc(-c2cnn(-c3ncc(C(F)(F)F)cc3Cl)c2)ccc1Cl [I-T3-60] | 100%
33 | N#CC1(NC(=O)c2cc(-c3cnn(-c4c(F)cc(C(F)(C(F)(F)F)C(F)(F)F)cc4F)c3)ccc2Cl)CC1 [I-T3-62] | 100%
34 | Cc1cc(C(F)(C(F)(F)F)C(F)(F)F)cc(C)c1-n1cc(-c2ccc(Cl)c(C(=O)NC3(C#N)CC3)c2F)cn1 [I-T3-65] | 100%
35 | CCc1cc(C(F)(C(F)(F)F)C(F)(F)F)cc(C)c1-n1cc(-c2ccc(Cl)c(C(=O)NC3(C#N)CC3)c2F)cn1 [I-T3-66] | 100%
36 | CCc1cc(C(F)(C(F)(F)F)C(F)(F)F)cc(C)c1-n1cc(-c2ccc(Cl)c(C(=O)NC3CC3)c2F)cn1 [I-T3-68] | 100%
37 | CCc1cc(C(F)(C(F)(F)F)C(F)(F)F)cc(C)c1-n1cc(-c2cccc(C(=O)NC3(C#N)CC3)c2F)cn1 [I-T3-69] | 100%
